The text below walks through data of paper PMC3856088, “Small Molecule Binding, Docking, and Characterization of the Interaction between Pth1 and Peptidyl-tRNA” (International Journal of Molecular Sciences, 2013).

For this experiment, the target named is T1, E. coli Pth1 (Escherichia coli, UniProt P0A7D1).
T1 construct: gene pth; wild type, 15N-labelled, expressed in E. coli W3110, purified on His-Trap FF (tag not described), 21 kDa monomer
The experiment is described as follows: 1H-15N HSQC NMR titration, chemical shift perturbation mapping. The settings on record: 20 mM Bis-Tris, 100 mM NaCl, 2 mM TCEP, pH 6.6, 25 °C; 200 uM 15N Pth1; ligand:protein up to 64:1; site opposite the substrate binding face.

T1 sequence (P0A7D1 2-194): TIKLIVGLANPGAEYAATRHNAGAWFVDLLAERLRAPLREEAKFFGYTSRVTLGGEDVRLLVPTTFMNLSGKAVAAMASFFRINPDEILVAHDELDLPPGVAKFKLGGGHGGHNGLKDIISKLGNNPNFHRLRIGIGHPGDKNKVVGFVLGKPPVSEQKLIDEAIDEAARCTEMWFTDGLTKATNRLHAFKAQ

As to `c1cc2c(cc1CN1CCNCC1)OCO2` [piperonylpiperazine], the “1H-15N HSQC NMR titration, chemical shift perturbation mapping” value is recorded as “The binding of piperonylpiperazine to wild type E. coli Pth1 was studied by NMR spectroscopy”.
